Data: US20040043043A1, “Preparation of emulsions and concentrates thereof” (priority 2000, published 2004)

How the values were obtained:
[1] = Chemical stability study: vitamin contents on storage at 20 °C/ambient RH; type: physicochemical; conditions: Example 1 syrup; for Degraded: 18 months at 20 °C/ambient RH, '+' = increase; for Recovery (initial versus nominal): two batches
Method: A stability study was carried out in order to investigate the chemical stability of the liquid multivitamin product. The product was manufactured according to the protocol set out in Example 1. Two production batches were prepared and subjected to a stability study. The following sampling times were used:
20° C./ambient 0, 3, 6, 12 and 18 months Relative Humidity (RH):
The following results for the vitamin contents after 18 months were obtained for the two production batches respectively at 20° C./ambient RH: […]

[2] = as above; type: physicochemical; conditions: for Degraded / Content after 18 months / Recovery (initial versus nominal): Example 4 syrup; for Degraded: 18 months at 20 °C/ambient RH, '+' = increase; for Recovery (initial versus nominal): two batches; for Initial content: Example 4 vitamin and mineral syrup

Degraded [1] | Vitamin content after 18 months ([1]; batch 1, 20 °C/ambient RH) | Vitamin content after 18 months ([1]; batch 2, 20 °C/ambient RH) | Initial vitamin content ([1]; production batch 1, time 0) | Initial vitamin content ([1]; production batch 2, time 0) | Recovery (initial versus nominal) [1] [%] | Degraded [2] | Content after 18 months ([2]; batch 1, 20 °C/ambient RH) | Content after 18 months ([2]; batch 2, 20 °C/ambient RH) | Recovery (initial versus nominal) [2] [%] | Initial content ([2]; batch 1, time 0) | Initial content ([2]; batch 2, time 0) | Molecule
16% | 3.6, 3.6 mg/10 ml | 3.6, 3.6 mg/10 ml | 4.3 mg/10 ml | 4.4 mg/10 ml | 98.9 | 11.1% | 9.2, 9.2 mg/5 ml | 9.2, 9.2 mg/5 ml | 101.5 | 10.4 mg/5 ml | 10.3 mg/5 ml | CC(C)(CO)[C@@H](O)C(=O)NCCC(=O)O [Pantothenic acid]
+2% | 1.25 mg/10 ml | 1.24 mg/10 ml | 1.21 mg/10 ml | 1.22 mg/10 ml | 96.4 | +1.1% | 0.89 mg/5 ml | 0.88 mg/5 ml | 99.4 | 0.88 mg/5 ml | 0.87 mg/5 ml | Cc1ncc(CO)c(CO)c1O [Pyridoxine]
16% | 518 μg/10 ml | 525 μg/10 ml | 623 μg/10 ml | 628 μg/10 ml | 113 | 13% | 1869 IU/5 ml | 1862 IU/5 ml | 110.0 | 2145, 2145 IU/5 ml | 2145, 2145 IU/5 ml | CC1=C(/C=C/C(C)=C/C=C/C(C)=C/CO)C(C)(C)CCC1 [Retinol]
+2% | 1.08 mg/10 ml | 1.09 mg/10 ml | 1.05 mg/10 ml | 1.06 mg/10 ml | 95.9 | 4.0% | 1.19, 1.19 mg/5 ml | 1.19, 1.19 mg/5 ml | 93.9 | 1.25 mg/5 ml | 1.23 mg/5 ml | Cc1cc2nc3c(=O)[nH]c(=O)nc-3n(C[C@H](O)[C@H](O)[C@H](O)CO)c2cc1C [Riboflavine]
8% | 0.88 mg/10 ml | 0.89 mg/10 ml | 0.96 mg/10 ml | 0.97 mg/10 ml | 97.5 | 7.9% | 1.16, 1.16 mg/5 ml | 1.16, 1.16 mg/5 ml | 96.9 | 1.27 mg/5 ml | 1.25 mg/5 ml | Cc1ncc(C[n+]2csc(CCO)c2C)c(N)n1 [Thiamine]
 |  |  |  |  |  | 16.7% | 9.7 μg/5 ml | 9.8 μg/5 ml | 104.5 | 11.6 μg/5 ml | 11.8 μg/5 ml | Vitamin B12

More lines, now with the values behind:

Molecule | Degraded [1] | Vitamin content after 18 months ([1]; batch 1, 20 °C/ambient RH) | Vitamin content after 18 months ([1]; batch 2, 20 °C/ambient RH) | Initial vitamin content ([1]; production batch 1, time 0) | Initial vitamin content ([1]; production batch 2, time 0) | Recovery (initial versus nominal) [1] [%] | Degraded [2] | Content after 18 months ([2]; batch 1, 20 °C/ambient RH) | Content after 18 months ([2]; batch 2, 20 °C/ambient RH) | Recovery (initial versus nominal) [2] [%] | Initial content ([2]; batch 1, time 0) | Initial content ([2]; batch 2, time 0)
O=C1O[C@H]([C@@H](O)CO)C(O)=C1O [Ascorbic acid] | 20% | 42.8 mg/10 ml | 43.6 mg/10 ml | 54.4 mg/10 ml | 55.3 mg/10 ml | 97.4 | 32.8% | 35.7 mg/5 ml | 34.9 mg/5 ml | 93.8 | 53.0 mg/5 ml | 52.0 mg/5 ml
CC1=C(/C=C/C(C)=C/C=C/C(C)=C/C=C/C=C(C)/C=C/C=C(C)/C=C/C2=C(C)CCCC2(C)C)C(C)(C)CCC1 [Betacaroten] |  |  |  |  |  |  | +6.3% | 2315 IU/5 ml | 2279 IU/5 ml | 110.8 | 2172 IU/5 ml | 2148 IU/5 ml
O=C(O)CCCC[C@@H]1SC[C@@H]2NC(=O)N[C@@H]21 [Biotin] |  |  |  |  |  |  | 9.8% | 103 μg/5 ml | 100 μg/5 ml | 102.3 | 109 μg/5 ml | 116 μg/5 ml
C=C1CC[C@H](O)C/C1=C/C=C1\CCC[C@]2(C)[C@@H]([C@H](C)CCCC(C)C)CC[C@@H]12 [Cholecalciferol] | 10% | 7.3, 7.3 μg/10 ml | 7.3, 7.3 μg/10 ml | 8.0 μg/10 ml | 8.1 μg/10 ml | 97.6 | +2.5% | 519 IU/5 ml | 502 IU/5 ml | 92.2 | 502 IU/5 ml | 494 IU/5 ml
Cc1c(C)c2c(c(C)c1O)CC[C@@](C)(CCC[C@H](C)CCC[C@H](C)CCCC(C)C)O2 [D-α-tocopherol] | 2% | 6.1 mg/10 ml | 6.2 mg/10 ml | 6.2 mg/10 ml | 6.3 mg/10 ml | 99.2 | 4.0% | 12.0 IU/5 ml | 11.9 IU/5 ml | 103.8 | 12.5 IU/5 ml | 12.4 IU/5 ml
Nc1nc2ncc(CNc3ccc(C(=O)N[C@@H](CCC(=O)O)C(=O)O)cc3)nc2c(=O)[nH]1 [Folic acid] | 21% | 71.4 μg/10 ml | 72.5 μg/10 ml | 92.1 μg/10 ml | 92.2 μg/10 ml | 102.4 | 7.9% | 255 μg/5 ml | 244 μg/5 ml | 96.8 | 276 μg/5 ml | 266 μg/5 ml
NC(=O)c1cccnc1 [Nicotinamide] | 4% | 11.6 mg/10 ml | 11.9 mg/10 ml | 12.2 mg/10 ml | 12.3 mg/10 ml | 97.2 | 4.7% | 18.5 mg/5 ml | 18.4 mg/5 ml | 100.8 | 19.5 mg/5 ml | 19.2 mg/5 ml
[Zn] [Zinc] |  |  |  |  |  |  | 1.2% | 8.4 mg/5 ml | 8.2 mg/5 ml | 102.5 | 8.2, 8.2 mg/5 ml | 8.2, 8.2 mg/5 ml
